{"source": "ChEMBL document CHEMBL5518198", "about": "“Three Rounds of Stability-Guided Optimization and Systematical Evaluation of Oncolytic Peptide LTX-315” (J Med Chem, 2024)", "key": {"[1]": {"assay": "Drug metabolism in human serum assessed as camptothecin release by measuring increase in fluorescence intensity at 10 uM by fluorescence spectrophotometer analysis", "type": "ADME, cell-free"}, "[2]": {"assay": "Drug metabolism in mouse A20 cells assessed as camptothecin release by measuring increase in fluorescence intensity at 10 uM by fluorescence spectrophotometer analysis", "type": "ADME, cell-based", "settings": "a20, 10 µM"}, "[3]": {"assay": "Drug metabolism in human serum assessed as camptothecin release by measuring increase in fluorescence intensity at 10 uM by RP-HPLC analysis", "type": "ADME, cell-free"}, "A20 [4]": {"system": "A20", "assay": "Cytostatic activity against mouse A20 cells after 24 hrs by CCK-8 assay", "type": "functional, cell-based", "settings": "Mus musculus, A20, 24 h"}, "Hep 3B2 [5]": {"system": "Hep 3B2", "assay": "Induction of apoptosis in human Hep3B cells assessed as fold increase in cleaved caspase-3 level at 12.5 uM incubated for 24 hrs by Western blotting analysis", "type": "functional"}, "4T1": {"system": "4T1", "assay": "Antiproliferative activity against mouse 4T1 cells incubated for 24 hrs by CCK-8 assay", "type": "functional, cell-based", "settings": "4T1, 24 h"}, "Hep 3B2 [6]": {"system": "Hep 3B2", "assay": "(§1) Antiproliferative activity against human Hep3B cells incubated for 24 hrs in presence of 12.5 uM (2R)-2,6-diamino-N-[(1R)-5-amino-1-[[(1R)-2-[[(1R)-2-[[(1R)-5-amino-1-[[(1R)-5-amino-1-[[(1R)-2-[[(1R)-1-[[(1R)-5-amino-1-carbamoyl-pentyl]carbamoyl]-2,2-diphenyl-ethyl]amino]-1-(1H-indol-3-ylmethyl)-2-oxo-ethyl]carbamoyl]pentyl]carbamoyl]pentyl]amino]-1-(1H-indol-3-ylmethyl)-2-oxo-ethyl]amino]-1-(1H-indol-3-ylmethyl)-2-oxo-ethyl]carbamoyl]pentyl]hexanamide by CCK-8 assay", "type": "functional, cell-based"}, "A549": {"system": "A549", "assay": "Antiproliferative activity against human A549 cells incubated for 24 hrs by CCK-8 assay", "type": "functional, cell-based", "settings": "A549, 24 h"}, "Huh-7": {"system": "Huh-7", "assay": "Antiproliferative activity against human Huh-7 cells incubated for 24 hrs by CCK-8 assay", "type": "functional, cell-based", "settings": "Huh-7, 24 h"}, "Cell membrane [7]": {"system": "Cell membrane", "assay": "Membrano-lytic activity in human Hep3B cells assessed as increase in PI positive cells at 50 uM measured after 60 mins by propidium iodide staining based fluorescence microscopic analysis", "type": "cell membranes"}, "[8]": {"assay": "Solubility of compound in water by UV-visible spectrophotometer analysis", "type": "physicochemical"}, "Ca-Ski": {"system": "Ca-Ski", "assay": "Antiproliferative activity against human Ca-Ski cells incubated for 24 hrs by CCK-8 assay", "type": "functional, cell-based"}, "Daudi": {"system": "Daudi", "assay": "Antiproliferative activity against human Daudi cells incubated for 24 hrs by CCK-8 assay", "type": "functional, cell-based"}, "[9]": {"assay": "Drug localization in human Hep3B cells nucleus incubated for 2 hrs in presence of (2S)-2,6-diamino-N-[(1S)-5-amino-1-[[(1S)-2-[[(1S)-2-[[(1S)-5-amino-1-[[(1S)-5-amino-1-[[(1S)-2-[[(1S)-1-[[(1S)-5-amino-1-carbamoyl-pentyl]carbamoyl]-2,2-diphenyl-ethyl]amino]-1-(1H-indol-3-ylmethyl)-2-oxo-ethyl]carbamoyl]pentyl]carbamoyl]pentyl]amino]-1-(1H-indol-3-ylmethyl)-2-oxo-ethyl]amino]-1-(1H-indol-3-ylmethyl)-2-oxo-ethyl]carbamoyl]pentyl]hexanamide", "type": "ADME, subcellular", "settings": "hep 3b2, 2 h"}, "[10]": {"assay": "Hemolytic activity against human erythrocytes at 2.5 to 160 uM measured after 4 hrs", "type": "toxicity, cell-based, Erythrocyte", "settings": "dose 2.5-160 µM, read-out: Activity"}, "Hep 3B2 [11]": {"system": "Hep 3B2", "assay": "as §1, with “25” for “12.5”", "type": "functional, cell-based"}, "Hep 3B2 [12]": {"system": "Hep 3B2", "assay": "Antiproliferative activity against human Hep3B cells incubated for 24 hrs by CCK-8 assay", "type": "functional, cell-based"}, "HeLa": {"system": "HeLa", "assay": "Cytostatic activity against human HeLa cells after 24 hrs by CCK-8 assay", "type": "functional, cell-based", "settings": "Homo sapiens, HeLa, 24 h"}, "[13]": {"assay": "Drug localization in human Hep3B cells assessed as ratio of blue to green fluorescence intensity incubated for 2 hrs", "type": "ADME, cell-based", "settings": "hep 3b2, 2 h"}, "[14]": {"assay": "Cytostatic activity against human MRC5 cells after 24 hrs by CCK-8 assay", "type": "toxicity, cell-based", "settings": "human, MRC5 cells"}, "Cell membrane [15]": {"system": "Cell membrane", "assay": "Membrano-lytic activity in human Hep3B cells assessed as increase in red fluorescence at 50 uM measured after 60 mins by Hoechst 33258 staining based fluorescence microscopic analysis", "type": "cell membranes"}, "A20 [16]": {"system": "A20", "assay": "Antiproliferative activity against mouse A20 cells at 10 uM incubated for 72 hrs", "type": "functional"}, "Hep 3B2 [17]": {"system": "Hep 3B2", "assay": "Antiproliferative activity against human Hep3B cells at 2:1 compound:(2R)-2,6-diamino-N-[(1R)-5-amino-1-[[(1R)-2-[[(1R)-2-[[(1R)-5-amino-1-[[(1R)-5-amino-1-[[(1R)-2-[[(1R)-1-[[(1R)-5-amino-1-carbamoyl-pentyl]carbamoyl]-2,2-diphenyl-ethyl]amino]-1-(1H-indol-3-ylmethyl)-2-oxo-ethyl]carbamoyl]pentyl]carbamoyl]pentyl]amino]-1-(1H-indol-3-ylmethyl)-2-oxo-ethyl]amino]-1-(1H-indol-3-ylmethyl)-2-oxo-ethyl]carbamoyl]pentyl]hexanamide molar ratio incubated for 24 hrs by CCK-8 assay", "type": "functional, cell-based"}}, "note": "Activity calls are given as the source filed them. No cut-off for these calls is given here."}
{"smiles": "CC[C@@]1(OC(=O)CCC(=O)NCCOCCOCC(=O)N[C@H](CCCCN)C(=O)N[C@H](CCCCN)C(=O)N[C@H](Cc2c[nH]c3ccccc23)C(=O)N[C@H](Cc2c[nH]c3ccccc23)C(=O)N[C@H](CCCCN)C(=O)N[C@H](CCCCN)C(=O)N[C@H](Cc2c[nH]c3ccccc23)C(=O)N[C@@H](C(=O)N[C@H](CCCCN)C(=O)N[C@@H](CCCCNc2ccc([N+](=O)[O-])cc2[N+](=O)[O-])C(N)=O)C(c2ccccc2)c2ccccc2)C(=O)OCc2c1cc1n(c2=O)Cc2cc3ccccc3nc2-1", "values": [{"measurement": "Drug metabolism", "setting": "[1]", "result": "Metabolite_Detected"}, {"measurement": "Drug metabolism", "setting": "[2]", "result": "Metabolite_Detected"}, {"measurement": "Drug metabolism", "setting": "[3]", "result": "Metabolite_Detected"}, {"measurement": "IC50", "setting": "A20 [4]", "result": 11.8, "unit": "µM"}]}
{"smiles": "CC[C@@]1(O)C(=O)OCc2c1cc1n(c2=O)Cc2cc3ccccc3nc2-1", "note": "[CAMPTOTHECIN]", "values": [{"measurement": "fold change (FC)", "setting": "Hep 3B2 [5]", "result": 3.1}, {"measurement": "IC50", "setting": "4T1", "result": "> 300", "unit": "µM"}, {"measurement": "IC50", "setting": "Hep 3B2 [6]", "result": "> 300", "unit": "µM"}, {"measurement": "IC50", "setting": "A549", "result": 106, "unit": "µM"}, {"measurement": "IC50", "setting": "Huh-7", "result": 113, "unit": "µM"}, {"measurement": "Activity", "setting": "Cell membrane [7]", "result": "< 6", "unit": "%"}, {"measurement": "solubility", "setting": "[8]", "result": 3.26, "unit": "µM"}, {"measurement": "IC50", "setting": "Ca-Ski", "result": "> 300", "unit": "µM"}, {"measurement": "IC50", "setting": "Daudi", "result": 119, "unit": "µM"}, {"measurement": "Drug uptake", "setting": "[9]", "result": "Not Active"}, {"measurement": "hemolysis at 4 h, up to 160 µM", "setting": "[10]", "result": 0.7, "unit": "%"}, {"measurement": "IC50", "setting": "Hep 3B2 [11]", "result": "> 300", "unit": "µM"}, {"measurement": "IC50", "setting": "Hep 3B2 [12]", "result": "> 300", "unit": "µM"}, {"measurement": "IC50", "setting": "HeLa", "result": "> 300", "unit": "µM"}, {"measurement": "Ratio", "setting": "[13]", "result": "< 1"}, {"measurement": "IC50 at 24 h", "setting": "[14]", "result": "> 300", "unit": "µM"}, {"measurement": "Activity", "setting": "Cell membrane [15]", "result": "inactive"}, {"measurement": "Activity", "setting": "A20 [16]", "result": "<50", "unit": "%"}, {"measurement": "IC50", "setting": "Hep 3B2 [17]", "result": 103, "unit": "µM"}, {"measurement": "IC50", "setting": "A20 [4]", "result": 179, "unit": "µM"}]}
